According to US20240382516A1, “PHARMACEUTICAL COMPOSITION FOR INCREASING MITOCHONDRIAL ACTIVITY AND/OR IMPROVING ADIPONECTIN PRODUCTION” (LOGICK ENERGETICS B.V., priority 2021, published 2024):

Assays:
Type in all cases: cell-based
[1] = system: Adiponectin gene expression in 3T3-L1 cells; experiment: qPCR adiponectin gene expression in 3T3-L1 cells; settings: 72 hours incubation, A 5.0 μg/ml, B 50 μM, C 1.0 μM
Procedure: • DMEM • 10% heat inactivated FCS • Compound A—5.0 μg/ml • Compound B-50 μM • Compound C-1.0 μM • Compound A+B • Compound A+C Protocol 3T3-L1 cell line • DMEM • 10% heat inactivated FCS • Compound A-[…] • Compound B-50 μM • Compound C-1.0 μM • Compound A+B • Compound A+C
In the of presence of: • 0.25 μM Dexamethasone & • 1 μg/ml Insulin • Therein A=pentosan, B=indomethacin, and C=pioglitazone.
Cells were stimulated at day 4 when they were sub confluent. After 72 hours of incubation, RNA was isolated from the cells.

Ppargc1a = Ppargc1a log2Foldchanges, RNA isolated from stimulated KS-cells; settings: for effect on changes in Ppargc1a activity (in words): 3 and 7 days stimulation
Source text: Therein A=pentosan, B-indomethacin, and C=pioglitazone. The RNA is isolated after 3 and 7 days stimulation in KS-cells, respectively. Ppargcla is considered particularly relevant for mitochondrial activity. A higher value represents a higher activity.

[2] = system: Cox family of sub-unit proteins of mitochondrial complex 4; experiment: Gene expression Log2fold change, Cox family, KS483 cells; settings: 7 days of stimulation
[3] = system: Nduf family of sub-unit proteins of mitochondrial complex 1; experiment: Gene expression Log2fold change, Nduf family, KS483 cells; settings: 7 days of stimulation

Compound	COX4iL Log2fold change [2]	COX5a Log2fold change [2]	COX5b Log2fold change [2]	COX6b1 Log2fold change [2]	COX7a2L Log2fold change [2]	COX8a Log2fold change [2]	COX15 Log2fold change [2]	COX17 Log2fold change [2]	COX19 Log2fold change [2]	COX20 Log2fold change [2]	Nduf4 0 Log2fold change [3]	Ndufa5 Log2fold change [3]	Ndufa9 Log2fold change [3]	Ndufa10 Log2fold change [3]	Ndufab1 Log2fold change [3]	Ndufaf7 Log2fold change [3]	Ndufb3 Log2fold change [3]	Ndufb4 Log2fold change [3]	Ndufb9 Log2fold change [3]	Ndufb10 Log2fold change [3]	other results
COc1ccc2c(c1)c(CC(=O)O)c(C)n2C(=O)c1ccc(Cl)cc1 [Compound B, indomethacin]	0	0	0	0	0	0	0	0	0	0	0	0	0	0	0	0	0	0	0	0	effect on Adiponectin gene expression (FIG. 1) [1]: show adiponectin gene expression; effect on changes in Ppargc1a activity (in words) (Ppargc1a): no measurable effect; Ndufc1 Log2fold change [3]: 0; Ndufs10 Log2fold change [3]: 0; Ndufs20 Log2fold change [3]: 0; Ndufv1 Log2fold change [3]: 0; Ndufv3 Log2fold change [3]: 0
CCc1ccc(CCOc2ccc(CC3SC(=O)NC3=O)cc2)nc1 (stereo not drawn) [Compound C, pioglitazone]	0	0	0	0	0	0	0	0	0	0	0	0.57	0	0	0	0.35	0	0	0	0	Ndufc1 Log2fold change [3]: 0; Ndufs10 Log2fold change [3]: 0; Ndufs20 Log2fold change [3]: 0; Ndufv1 Log2fold change [3]: 0; Ndufv3 Log2fold change [3]: 0
pentosan polysulphate [Compound A]	0	0.31	0	0	−0.42	0	0	0	0	0	0	0	0	0	0	0	0	0	0	0	effect on Adiponectin gene expression (FIG. 1) [1]: hardly any effect; effect on changes in Ppargc1a activity (in words) (Ppargc1a): some effect; Ppargc1a log2Foldchanges (Ppargc1a; 3 days stimulation): 1.14; Ppargc1a log2Foldchanges (Ppargc1a; 7 days stimulation): 1.3; Ndufc1 Log2fold change [3]: 0; Ndufs10 Log2fold change [3]: 0; Ndufs20 Log2fold change [3]: 0; Ndufv1 Log2fold change [3]: 0; Ndufv3 Log2fold change [3]: 0
